Measured values taken from PMC4180209 (Arteriosclerosis, thrombosis, and vascular biology, 2014).
Like-named read-outs stand apart in the source and are kept apart here.

Columns and labels:
[1] = test system: human ADP-induced platelet aggregation; details: cited from earlier work
[2] = molecular target: T1, αIIbβ3 (Homo sapiens, UniProt P05106+P08514); details: cited from earlier work
[3] = molecular target: T2, platelet αIIbβ3 (Homo sapiens, UniProt P05106+P08514); details: cited from earlier work
[4] = test system: human ADP-induced platelet aggregation; test: ADP-induced platelet aggregation in platelet-rich plasma; type: cell-based; details: read-out: IC50 ADP-induced platelet aggregation; 5 µM ADP; citrated platelet-rich plasma; n=8
[5] = Solubility in aqueous buffer; type: physicochemical
[6] = molecular target: T3, murine αIIbβ3 (Mus musculus, UniProt O54890+Q9QUM0); test: Reactivity with murine platelets / inhibition of murine αIIbβ3; type: cell-based
[7] = molecular target: T1, αIIbβ3; test: Adhesion of HEK293 cells expressing αIIbβ3 to fibrinogen; type: cell-based; details: for inhibition of binding of cells expressing αIIbβ3 to fibrinogen: HEK293 cells, RUC-2 100 µM, RUC-4 300 µM; for Specificity for αIIbβ3 vs αVβ3: αIIbβ3 cells to fibrinogen vs αVβ3 cells to vitronectin
[8] = molecular target: αVβ3 (Homo sapiens, UniProt P05106+P06756); test: Adhesion of HEK293 cells expressing αVβ3 to vitronectin; type: cell-based; details: RUC-2 100 µM, RUC-4 300 µM
[9] = molecular target: T1, αIIbβ3; test: Binding of ligand-induced binding site mAb AP5 to washed platelets; type: cell-based; details: for induction of increased binding of mAb AP5 (LIBS epitope in β3 PSI domain): eptifibatide 10 µM, RUC-2 100 µM, RUC-4 100 µM
[10] = molecular target: T2, platelet αIIbβ3; test: Priming platelet αIIbβ3 to bind fibrinogen; type: cell-based
[11] = test system: platelets of mice expressing hαIIb/mβ3; test: ADP-induced platelet aggregation after dosing of hαIIb/mβ3 mice; type: in vivo
[12] = Plasma concentrations in hαIIb/mβ3 mice; type: in vivo; details: exception of an outlier value
[13] = test system: ADP (20 µM)-induced platelet aggregation; test: ADP-induced platelet aggregation after IM administration to M. fascicularis; type: in vivo
[14] = test system: hαIIb/mβ3 mice; test: FeCl3 murine carotid artery thrombosis model; type: in vivo; details: for platelet counts: hαIIb/mβ3 mice
[15] = test system: human platelets; type: in vivo, mice; details: RUC-4 IV 1.5 mg/kg; laser injury, cremasteric arterioles; intravital microscopy
[16] = test system: hαIIb/mβ3 platelets; details: read-out: IC50 for hαIIb/mβ3 platelets; data not shown, n=3
[17] = cited from earlier work
[18] = Clinical evaluation and platelet counts in M. fascicularis
[19] = molecular target: T3, murine αIIbβ3; details: 1 µM; cited from earlier work
[20] = RUC-4 1.2 mg/kg IM, 20 µM ADP, hαIIb/mβ3 mice
[21] = IM 1.9 and 3.85 mg/kg, non-human primates
[22] = RUC-2 0.39 mg/kg IP, 20 µM ADP, hαIIb/mβ3 mice

T3 sequence (Q9QUM0 32-1033): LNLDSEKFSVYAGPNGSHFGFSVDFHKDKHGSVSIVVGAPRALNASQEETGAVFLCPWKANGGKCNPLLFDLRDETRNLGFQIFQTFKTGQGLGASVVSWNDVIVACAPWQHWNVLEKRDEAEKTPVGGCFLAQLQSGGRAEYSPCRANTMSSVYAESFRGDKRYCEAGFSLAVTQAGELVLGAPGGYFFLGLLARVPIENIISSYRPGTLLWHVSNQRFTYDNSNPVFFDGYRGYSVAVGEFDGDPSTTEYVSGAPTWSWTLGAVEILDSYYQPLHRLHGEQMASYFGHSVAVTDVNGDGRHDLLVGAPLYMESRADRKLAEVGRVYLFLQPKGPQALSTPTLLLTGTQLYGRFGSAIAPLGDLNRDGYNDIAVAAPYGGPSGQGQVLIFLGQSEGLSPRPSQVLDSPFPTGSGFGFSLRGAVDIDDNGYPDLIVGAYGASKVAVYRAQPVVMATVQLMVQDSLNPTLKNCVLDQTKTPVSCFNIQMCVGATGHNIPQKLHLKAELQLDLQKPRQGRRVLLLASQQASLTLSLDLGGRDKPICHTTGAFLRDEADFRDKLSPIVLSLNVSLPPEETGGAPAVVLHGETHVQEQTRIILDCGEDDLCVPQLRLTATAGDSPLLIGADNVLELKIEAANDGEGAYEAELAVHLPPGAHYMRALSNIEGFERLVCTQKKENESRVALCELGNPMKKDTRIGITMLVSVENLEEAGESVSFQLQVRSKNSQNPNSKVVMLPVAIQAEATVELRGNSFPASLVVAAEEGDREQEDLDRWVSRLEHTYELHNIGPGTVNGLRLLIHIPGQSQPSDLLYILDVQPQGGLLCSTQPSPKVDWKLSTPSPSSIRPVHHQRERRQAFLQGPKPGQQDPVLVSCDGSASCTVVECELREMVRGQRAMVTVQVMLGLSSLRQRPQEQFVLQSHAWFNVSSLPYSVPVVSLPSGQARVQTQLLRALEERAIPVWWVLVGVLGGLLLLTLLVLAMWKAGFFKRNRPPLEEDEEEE
T3 sequence (O54890 26-787): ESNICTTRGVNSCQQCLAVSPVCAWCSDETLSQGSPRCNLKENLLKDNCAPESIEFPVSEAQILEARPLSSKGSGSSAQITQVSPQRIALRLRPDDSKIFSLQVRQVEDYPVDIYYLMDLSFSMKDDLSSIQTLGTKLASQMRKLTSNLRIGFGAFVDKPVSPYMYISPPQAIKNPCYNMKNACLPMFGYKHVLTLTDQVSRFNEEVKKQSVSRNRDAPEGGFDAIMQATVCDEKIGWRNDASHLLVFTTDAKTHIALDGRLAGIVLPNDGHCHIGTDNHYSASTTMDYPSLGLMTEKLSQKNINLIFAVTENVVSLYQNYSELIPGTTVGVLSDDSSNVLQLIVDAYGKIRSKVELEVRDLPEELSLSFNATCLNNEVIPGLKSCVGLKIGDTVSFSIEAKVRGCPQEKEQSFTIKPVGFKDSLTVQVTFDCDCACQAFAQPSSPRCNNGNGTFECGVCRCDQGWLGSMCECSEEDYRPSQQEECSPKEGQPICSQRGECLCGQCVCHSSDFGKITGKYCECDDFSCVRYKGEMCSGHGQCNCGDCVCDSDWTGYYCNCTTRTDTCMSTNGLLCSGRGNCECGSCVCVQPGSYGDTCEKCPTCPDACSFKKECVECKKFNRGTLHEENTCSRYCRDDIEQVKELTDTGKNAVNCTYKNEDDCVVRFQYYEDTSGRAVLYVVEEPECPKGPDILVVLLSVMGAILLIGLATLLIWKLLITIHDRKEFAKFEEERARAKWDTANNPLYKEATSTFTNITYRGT
T2 sequence (P08514 32-887 limits assumed): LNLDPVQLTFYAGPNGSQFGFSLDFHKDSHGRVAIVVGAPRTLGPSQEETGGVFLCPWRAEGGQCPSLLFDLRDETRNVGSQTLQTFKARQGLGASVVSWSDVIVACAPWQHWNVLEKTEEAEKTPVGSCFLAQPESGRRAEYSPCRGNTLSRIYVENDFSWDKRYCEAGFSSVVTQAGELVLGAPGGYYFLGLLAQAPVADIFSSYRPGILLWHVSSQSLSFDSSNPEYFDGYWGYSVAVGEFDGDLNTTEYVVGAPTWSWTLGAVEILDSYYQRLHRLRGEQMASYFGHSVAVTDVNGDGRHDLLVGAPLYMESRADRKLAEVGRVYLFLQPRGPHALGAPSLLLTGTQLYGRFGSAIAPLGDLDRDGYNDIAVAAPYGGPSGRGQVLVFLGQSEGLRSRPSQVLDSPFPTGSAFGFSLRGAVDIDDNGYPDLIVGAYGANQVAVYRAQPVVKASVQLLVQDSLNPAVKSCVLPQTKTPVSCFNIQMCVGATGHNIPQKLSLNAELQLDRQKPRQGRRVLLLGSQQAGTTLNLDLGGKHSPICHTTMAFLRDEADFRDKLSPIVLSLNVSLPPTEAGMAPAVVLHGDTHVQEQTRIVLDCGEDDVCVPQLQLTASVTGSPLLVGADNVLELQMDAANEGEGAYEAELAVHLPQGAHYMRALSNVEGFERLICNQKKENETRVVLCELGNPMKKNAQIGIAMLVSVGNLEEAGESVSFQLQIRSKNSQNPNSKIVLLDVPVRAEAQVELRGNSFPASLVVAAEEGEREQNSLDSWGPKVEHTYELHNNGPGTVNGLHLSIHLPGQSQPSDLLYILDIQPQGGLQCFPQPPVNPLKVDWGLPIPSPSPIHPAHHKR
T2 sequence (P08514 891-1039 partner limits assumed): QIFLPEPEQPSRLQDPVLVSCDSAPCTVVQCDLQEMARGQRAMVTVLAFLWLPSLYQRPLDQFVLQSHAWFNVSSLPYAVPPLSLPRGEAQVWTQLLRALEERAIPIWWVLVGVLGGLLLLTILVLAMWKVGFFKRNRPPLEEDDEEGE
T2 sequence (P05106 27-788): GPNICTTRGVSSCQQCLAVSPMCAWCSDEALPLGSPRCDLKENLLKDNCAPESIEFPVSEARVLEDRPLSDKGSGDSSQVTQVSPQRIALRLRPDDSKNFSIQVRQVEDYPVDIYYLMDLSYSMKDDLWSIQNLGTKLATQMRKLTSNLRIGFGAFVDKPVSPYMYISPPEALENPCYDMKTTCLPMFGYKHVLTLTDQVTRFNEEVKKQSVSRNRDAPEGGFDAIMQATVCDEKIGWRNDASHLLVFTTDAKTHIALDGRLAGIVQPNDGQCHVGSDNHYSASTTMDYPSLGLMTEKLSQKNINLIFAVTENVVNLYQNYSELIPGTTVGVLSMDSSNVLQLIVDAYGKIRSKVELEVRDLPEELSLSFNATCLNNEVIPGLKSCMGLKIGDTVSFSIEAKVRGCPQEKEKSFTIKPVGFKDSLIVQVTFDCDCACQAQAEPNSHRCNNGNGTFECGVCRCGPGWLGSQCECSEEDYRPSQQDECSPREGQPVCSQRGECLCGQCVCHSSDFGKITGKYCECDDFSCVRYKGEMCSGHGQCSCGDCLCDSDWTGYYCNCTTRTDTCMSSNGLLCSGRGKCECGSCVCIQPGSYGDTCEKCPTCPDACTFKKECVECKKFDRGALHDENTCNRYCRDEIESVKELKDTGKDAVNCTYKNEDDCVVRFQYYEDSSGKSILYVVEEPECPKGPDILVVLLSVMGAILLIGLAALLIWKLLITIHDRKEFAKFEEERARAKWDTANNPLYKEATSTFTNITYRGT
T1 sequence (P08514 32-887 limits assumed): as the sequence (P08514 32-887 limits assumed) above
T1 sequence (P08514 891-1039 partner limits assumed): as the sequence (P08514 891-1039 partner limits assumed) above
T1 sequence (P05106 27-788): as the sequence (P05106 27-788) above
Sequence of αVβ3 (P06756 31-889 limits assumed): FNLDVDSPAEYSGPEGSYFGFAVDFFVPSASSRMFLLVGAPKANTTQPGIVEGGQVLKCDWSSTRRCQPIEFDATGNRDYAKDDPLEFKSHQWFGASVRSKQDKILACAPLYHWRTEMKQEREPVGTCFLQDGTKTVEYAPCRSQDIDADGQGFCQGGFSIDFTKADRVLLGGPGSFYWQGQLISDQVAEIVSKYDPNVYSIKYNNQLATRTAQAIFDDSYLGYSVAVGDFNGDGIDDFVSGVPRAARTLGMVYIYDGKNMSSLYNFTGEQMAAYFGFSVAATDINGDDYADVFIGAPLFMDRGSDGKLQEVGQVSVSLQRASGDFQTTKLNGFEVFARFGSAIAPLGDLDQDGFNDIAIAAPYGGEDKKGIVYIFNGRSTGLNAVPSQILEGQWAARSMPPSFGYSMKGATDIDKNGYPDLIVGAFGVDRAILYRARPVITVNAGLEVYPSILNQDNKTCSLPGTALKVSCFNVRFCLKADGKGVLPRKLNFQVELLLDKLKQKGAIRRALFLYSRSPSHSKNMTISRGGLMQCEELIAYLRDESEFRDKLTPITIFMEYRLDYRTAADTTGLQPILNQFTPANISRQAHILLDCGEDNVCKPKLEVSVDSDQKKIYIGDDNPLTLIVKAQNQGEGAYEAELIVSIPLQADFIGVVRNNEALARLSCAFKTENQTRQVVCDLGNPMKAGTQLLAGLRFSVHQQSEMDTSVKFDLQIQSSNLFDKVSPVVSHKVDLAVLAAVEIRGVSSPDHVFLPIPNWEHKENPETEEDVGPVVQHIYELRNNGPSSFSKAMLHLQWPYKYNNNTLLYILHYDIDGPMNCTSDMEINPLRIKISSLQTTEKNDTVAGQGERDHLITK
Sequence of αVβ3 (P06756 891-1048 partner limits assumed): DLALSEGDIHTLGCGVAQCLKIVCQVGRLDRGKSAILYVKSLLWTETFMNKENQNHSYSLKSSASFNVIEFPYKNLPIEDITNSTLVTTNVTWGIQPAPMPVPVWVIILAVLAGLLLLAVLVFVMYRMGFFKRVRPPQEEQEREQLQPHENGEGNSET
Sequence of αVβ3 (P05106 27-788): as the sequence (P05106 27-788) above

For `CCc1nn2c(=O)cc(N3CCNCC3)nc2s1` [RUC-1], the IC50 [1] is given as 13000 nM, the “conformational changes in β3 detectable by a conformation-specific monoclonal antibody or by electron microscopy” value [2] is given as “nor did they induce conformational changes in β3” and the “priming of the receptor to bind the ligand fibrinogen” value (“priming of the receptor” for short) [3] is given as “neither RUC-1 nor RUC-2 primed the receptor”.

With `NCC(=O)Nc1cncc(-c2nn3c(=O)cc(N4CCNCC4)nc3s2)c1` [RUC-4] the IC50 [4] was 57 ± 10 nM, the “fold more soluble than RUC-2 in aqueous buffer at neutral pH” value ([5]; neutral pH) was “more than 500 fold” and the “Solubility in aqueous buffer at pH 7.4” value [5] was 60–80 mg/ml. For the same molecule, the “Reactivity with murine platelets” value [6] was “No”, the “inhibition of murine αIIbβ3” value ([6]; data not shown) was “shares this property” and the “inhibition of binding of cells expressing αIIbβ3 to fibrinogen” value [7] was “inhibiting the binding of cells expressing αIIbβ3 to fibrinogen”. For the same molecule, the “Specificity for αIIbβ3 vs αVβ3” value [7] was “Yes”, the “inhibition of binding of cells expressing αVβ3 to vitronectin” value [8] was “inability to inhibit” and the “Ability to Induce conformational changes in αIIbβ3 identifiable by LIBS mAb” value [9] was “No”. For the same molecule, the “induction of increased binding of mAb AP5 (LIBS epitope in β3 PSI domain)” value [9] was “did not induce increased binding”, the “Ability to prime αIIbβ3 to bind fibrinogen” value [10] was “No” and the “time of complete inhibition of platelet aggregation” value [11, 20] was 5 min. For the same molecule, the “time of partial return of aggregation” value [11, 20] was 4 h, the “platelet aggregation at the 45 minute time point” value ([11]; RUC-4 1.2 mg/kg IM) was “complete inhibition of platelet aggregation in all animals” and the “time to maximum plasma concentration” value ([12]; RUC-4 IM) was 5 min. For the same molecule, the “time at which return toward normal aggregation is evident” value ([13]; 1.0 mg/kg IM, 20 µM ADP) was 2 h, the “inhibition of aggregation at 15 minutes” value ([13]; 1.0 mg/kg IM, 15 minutes) was “partial” and the “time at which aggregation response began to return to normal” value ([13]; 1.93 mg/kg IM, 20 µM ADP) was at most 4.5 h. For the same molecule, the “time to complete inhibition of aggregation” value ([13]; 1.93 mg/kg IM, 20 µM ADP) was at most 15 min, the “time to complete inhibition of aggregation” value ([13]; 3.86 mg/kg IM, 20 µM ADP) was at most 15 min and the “dose-dependent return of platelet aggregation after” value [13, 21] was 4.5 to 24 h. The “time to complete inhibition of platelet aggregation” value [13, 21] was at most 15 min, the “mice developing occlusion during the experiment” value ([14]; RUC-4 1.2 mg/kg IM, 20% FeCl3 for 3 minutes, 20 minutes after dosing) was 2/11 and the platelet counts ([14]; RUC-4 1.2 mg/kg IM) was 674±176 × 10^3 platelets per µl. The “decrease in thrombus formation” value [15] was over 80%, the IC50 [16] was about 10 nM and the “fold more soluble than RUC-2” value [17] was “more than 500 fold”. For the same molecule, the bleeding observation ([18]; 3.85 mg/kg IM) was “Transient gum bleeding”, the “clinical evaluation (tolerability)” value ([18]; IM 3.86, 1.93 and 1.0 mg/kg) was “well tolerated” and the “platelet counts throughout the 24 hour period” value ([18]; IM 3.86, 1.93 and 1.0 mg/kg, 24 hour) was “remained stable”.

For `CCCCS(=O)(=O)N[C@@H](Cc1ccc(OCCCCC2CCNCC2)cc1)C(=O)O` [tirofiban, reference compound], the “priming of the receptor” value [3] is listed as “unlike eptifibatide and tirofiban, neither RUC-1 nor RUC-2 primed the receptor”.

For `NCC(=O)Nc1cccc(-c2nn3c(=O)cc(N4CCNCC4)nc3s2)c1` [RUC-2], the IC50 [4] was 95 ± 20 nM, the “Solubility in aqueous buffer at pH 7.4” value [5] was 0.068–0.092 mg/ml and the “Reactivity with murine platelets” value [6] was “No”. The “inhibition of binding of cells expressing αIIbβ3 to fibrinogen” value [7] was “inhibiting the binding of cells expressing αIIbβ3 to fibrinogen”, the “Specificity for αIIbβ3 vs αVβ3” value [7] was “Yes” and the “inhibition of binding of cells expressing αVβ3 to vitronectin” value [8] was “inability to inhibit”. The “Ability to Induce conformational changes in αIIbβ3 identifiable by LIBS mAb” value [9] was “No”, the “induction of increased binding of mAb AP5 (LIBS epitope in β3 PSI domain)” value [9] was “did not induce increased binding” and the “Ability to prime αIIbβ3 to bind fibrinogen” value [10] was “No”. The “time at which return of the aggregation response begins” value [11, 22] was 45 min, the “time to complete inhibition of platelet aggregation” value [11, 22] was at most 15 min and the “time to complete inhibition of platelet aggregation” value ([11]; RUC-2 3.85 mg/kg IP, 20 µM ADP, hαIIb/mβ3 mice) was at most 15 min. For the same molecule, the “platelet aggregation at the 45 minute time point” value ([11]; RUC-2 3.85 mg/kg IP) was “complete inhibition of platelet aggregation in all animals”, the “time to maximum plasma concentration” value ([12]; RUC-2 IP) was 15 min and the “mice protected from vaso-occlusion” value ([14]; RUC-2 3.85 mg/kg IP, 20% FeCl3 for 3 minutes, 20 minutes after dosing) was 8/8. For the same molecule, the platelet counts ([14]; RUC-2 3.85 mg/kg IP) was 677±132 × 10^3 platelets per µl, the IC50 [1] was about 90 nM and the “fold more potent than RUC-1” value [1] was ~ 100 fold. For the same molecule, the “inhibition of murine αIIbβ3” value [19] was “does not inhibit”, the “conformational changes in β3 detectable by a conformation-specific monoclonal antibody or by electron microscopy” value [2] was “nor did they induce conformational changes in β3” and the “priming of the receptor” value [3] was “neither RUC-1 nor RUC-2 primed the receptor”.

In the case of eptifibatide [reference compound], the “fold higher affinity for αIIbβ3 than RUC-4 as judged by IC50 for platelet aggregation” value [1] is listed as “more than 4 fold” and the “priming of the receptor” value [3] is listed as “unlike eptifibatide and tirofiban, neither RUC-1 nor RUC-2 primed the receptor”.
